“And” between values parts separate entries of the source, which are not always exact repeats. Equal entries are not always repeated. Where two headings read alike, the source gives them in different places.
Assays:
[1] = parameters: method as in ref 18−20; details: ref 18−20; cited from earlier work
[2] = tested on: human breast and leukemia cancer cell lines; parameters: method as in ref 18−20; details: ref 18−20; cited from earlier work
[3] = target: T1, OxaD (Penicillium oxalicum, UniProt A0A1B2TT15); details: for kred2: slow phase
Procedure: To remove oxygen from the enzyme sample, OxaD (or D63A) was degassed along with buffer solutions as previously described. The stopped-flow was incubated with an anaerobic solution of 0.6 μM glucose oxidase and 100 mM D-glucose in 100 mM sodium acetate, pH 5.0, overnight to remove any oxygen.[27] […] For all stopped-flow experiments, the concentrations listed are after mixing in the instrument. […] Absorbance changes between 200 and 800 nm were recorded. The decrease in absorbance at 446 nm was fit to eq 2 to obtain the observed rate constant of the fast phase (k1) and of the slow phase (k2). A446 is the absorbance at 446 nm, A is the amplitude of the phase, t is time, and C is the final absorbance at 446 nm. […] Oxygenated buffer was prepared by bubbling 30 cc/min (pressure regulated by a flowmeter) of 100% oxygen into the OxaD activity buffer on an ice bath for 1 h while stirring. The resulting oxygen solution has a concentration of 1.2 mM.[27] Oxidation of reduced OxaD or D63A was investigated at various concentrations of oxygen (100–600 μM) at room temperature. To obtain lower oxygen concentrations, the saturated oxygen solution was diluted with anaerobic buffer. Absorbance changes at 200–800 nm were recorded. Absorbance changes at 365 nm were fit to eq 4 to account for the absorbance increase and decrease. In eq 4, A365 is the absorbance values at 365 nm, A1 and A2 are the changes in absorbance related to a single phase, k1 is the rate of absorbance increase, and k2 is the rate of absorbance decrease. Absorbance increases at 446 nm were fit to eq 5, where A446 is the absorbance values at 446 nm, kobs is the observed rate and AΔ is the change in absorbance. In both eq 4 and eq 5, A0 is the initial absorbance and t is time. The bimolecular rate constant was determined using a linear equation. All data fitting was carried out with KaleidaGraph. Spectral deconvolution was carried out using a three-step model that accounted for the reduced enzyme–substrate complex, the enzyme-intermediate complex, and the final oxidized enzyme.

[4] = target: T2, OxaD D63A (Penicillium oxalicum, UniProt A0A1B2TT15, D63A); experiment: Anaerobic stopped-flow, reductive-half reaction, D63A mutant; format: biochemical, Penicillium oxalicum F30; details: for kred2: slow phase
[5] = target: T2, OxaD D63A
Procedure: (§2) OxaD D63A (D63A from hereon) was expressed and purified using the same procedures as those described for OxaD.
(§3) All oxygen consumption assays were performed using an Oxygraph+ system from Hansatech Instruments (Norfolk, U.K.). Assays were performed in 25 mM HEPES/Na^+ buffer, pH 7.6, 50 mM NaCl, 1% DMSO (750 μL total volume). […] Equation 1 was used to determine the turnover number (kcat) and Michaelis–Menten constant (KM).

[6] = tested on: OxaD D63A; experiment: Anaerobic stopped-flow, reductive-half reaction, D63A mutant; format: biochemical, Penicillium oxalicum F30; details: D63A vs OxaD
[7] = tested on: OxaD D63A; details: D63A vs OxaD
Procedure: as §2, §3

[8] = target: T3, oxidized D63A (Penicillium oxalicum, UniProt A0A1B2TT15, D63A); format: binding, Penicillium oxalicum F30; details: 15 μM oxidized D63A, roquefortine C 0–40 μM, pH 7.6; read-out: apparent KD
T3 sequence (A0A1B2TT15 1-467 D63A): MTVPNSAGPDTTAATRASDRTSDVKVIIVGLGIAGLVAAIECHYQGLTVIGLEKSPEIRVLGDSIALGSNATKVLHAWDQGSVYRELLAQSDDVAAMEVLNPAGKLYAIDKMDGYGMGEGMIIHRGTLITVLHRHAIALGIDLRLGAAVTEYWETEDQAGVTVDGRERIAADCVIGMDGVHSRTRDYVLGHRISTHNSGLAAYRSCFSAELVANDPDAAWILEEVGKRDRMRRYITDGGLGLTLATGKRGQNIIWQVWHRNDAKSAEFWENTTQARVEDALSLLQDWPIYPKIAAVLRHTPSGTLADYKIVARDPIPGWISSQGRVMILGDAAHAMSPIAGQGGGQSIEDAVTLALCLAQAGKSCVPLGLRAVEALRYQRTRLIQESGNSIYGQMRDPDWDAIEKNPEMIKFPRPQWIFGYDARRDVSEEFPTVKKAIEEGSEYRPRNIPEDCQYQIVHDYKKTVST
Procedure: (§1) These methods were adapted from Abdelwahab et al., 2016.[29] […] The instrument was blanked with each concentration of roquefortine C prior to recording the enzyme–substrate complex spectra. Each solution was 200 μL and contained 15 μM of enzyme, and various roquefortine C concentrations (0–40 μM). Prior to recording the spectra, the enzyme was incubated on ice for 5 min with the substrate and the spectra were measured immediately following the incubation.

[9] = target: T4, oxidized OxaD (Penicillium oxalicum, UniProt A0A1B2TT15); format: binding, Penicillium oxalicum F30; details: 15 μM oxidized OxaD, roquefortine C 0–40 μM, pH 7.6; read-out: apparent KD
T4 sequence (A0A1B2TT15 1-467): T3 sequence (A0A1B2TT15 1-467 D63A)
Procedure: as §1

[10] = target: T1, OxaD; parameters: method as in PMID 27505044; details: previous characterization; cited from earlier work
[11] = tested on: cytochrome P450s in the liver and kidneys; parameters: method as in PMID 16019806; details: likely through binding to the heme in the active site; cited from earlier work
[12] = tested on: mice; parameters: method as in ref 11−14; details: mice exposed to roquefortine C; ref 11−14; cited from earlier work
[13] = target: T1, OxaD; experiment: Oxygen consumption assay, steady-state kinetics; details: OxaD 1 μM; pH 7.6, 1% DMSO; roquefortine C fixed 100 μM for cosubstrates; NADPH fixed 500 μM when roquefortine C varied
Procedure: All oxygen consumption assays were performed using an Oxygraph+ system from Hansatech Instruments (Norfolk, U.K.). Assays were performed in 25 mM HEPES/Na^+ buffer, pH 7.6, 50 mM NaCl, 1% DMSO (750 μL total volume).

[14] = OxaD 10 μM, 10 μM roquefortine C, fast phase, apparent
[15] = OxaD 10 μM, 10 μM roquefortine C
[16] = D63A 10 μM, 10 μM roquefortine C, fast phase
[17] = D63A 10 μM, 10 μM roquefortine C

C=CC(C)(C)[C@]12C=C(O)C(=O)N3/C(=C/c4cnc[nH]4)C(=O)N[C@@]31N(O)c1ccccc12 [glandicoline B]
antibacterial effects [1]: antibacterial effects

Melegranin
anticancer properties [2]: anticancer properties

C=CC(C)(C)[C@]12C=C(OC)C(=O)N3/C(=C/c4c[nH]cn4)C(=O)N[C@@]31N(OC)c1ccccc12 [oxaline]
anticancer properties [2]: anticancer properties | antibacterial effects [1]: antibacterial effects

NADH
kred1 [3, 14]: 43 ± 0.30 s^–1 | kred2 [3, 15]: 0.34 ± 0.01 s^–1 | increase in KD(app) relative to NADPH ([3]; OxaD, NADH vs NADPH): ~3 fold

(R)-[4-^2H]-NADPH
kred1 [4, 16]: 2.4 ± 0.08 s^–1 | kred2 [4, 17]: 0.17 ± 0.01 s^–1 | ^Dkred (kinetic isotope effect on rate of reduction) ([4]; D63A, 4 mM synthesized NADPH vs 4 mM (R)-[4-^2H]-NADPH): ^Dkred = 3.60 ± 0.13 | ^Dkcat (kinetic isotope effect on kcat) ([5]; D63A, synthesized NADPH vs (R)-[4-^2H]-NADPH): ^Dkcat = 3.40 ± 0.38 | kred1 [3, 14]: 9.1 ± 0.10 s^–1 | kred2 [3, 15]: 0.24 ± 0.05 s^–1

NADPH
kred1 [4, 16]: 9.0 ± 0.20 s^–1 | kred2 [4, 17]: 0.18 ± 0.01 s^–1 | kred1/KD(app) ([4]; D63A, 10 μM roquefortine C): 7.2 × 10^3 ± 1.4 × 10^3 M^–1·s^–1 | kred1 ([4]; D63A, No roquefortine C): 0.17 ± 0.01 s^–1 | decrease in kred compared to OxaD [6]: ~5 fold | increase in KM compared to OxaD [7]: 25 fold | kred1 [3, 14]: 48 ± 0.80 s^–1 | kred2 [3, 15]: 0.39 ± 0.01 s^–1 | kred1/KD(app) ([3]; OxaD, 10 μM roquefortine C): 9.0 × 10^4 ± 2.0 × 10^3 M^–1·s^–1 | kred1 ([3]; OxaD, No roquefortine C): 0.40 ± 0.10 s^–1

NADPH [Synthesized NADPH]
kred1 [4, 16]: 8.6 ± 0.14 s^–1 | kred2 [4, 17]: 0.20 ± 0.04 s^–1 | kred1 [3, 14]: 45 ± 0.70 s^–1 | kred2 [3, 15]: 0.32 ± 0.02 s^–1

C=CC(C)(C)[C@@]12C[C@H]3C(=O)N/C(=C/c4c[nH]cn4)C(=O)N3[C@@H]1Nc1ccccc12 [Roquefortine C]
enhancement of kred in the presence of substrate ([4]; D63A, with vs without substrate): ~50 fold | Kd [8]: 6.4 ± 0.2 µM | Kd [9]: 6.9 µM and ~6.9 µM | Km ([5]; pH 7.6): 3.5 ± 0.9 µM | increase in kcat compared to OxaD ([7]; oxygen consumption): ~2 fold | Km [10]: 0.071 µM | kcat [10]: 0.017 s^–1 | effect on cytochrome P450s [11]: deactivate cytochrome P450s in the liver and kidneys | toxic effects in mice [12]: cytotoxic, immunotoxic, neurotoxic, and lung inflammatory effects | Km [13]: 3 ± 1 µM | kcat [13]: 0.93 ± 0.07 s^–1 | enhancement of kred by presence of roquefortine C ([3]; OxaD, with vs without roquefortine C): 120 fold

Reference: publication PMC11154958, “Mechanism of Nitrone Formation by a Flavin-Dependent Monooxygenase” (Biochemistry, 2024)
